The values that follow come from patent EP0115400A1, “Triazole antifungal agents” (Pfizer Limited, priority 1983, dated 1984).

One test deals with Candida albicans. The test is described as follows: in vivo oral protection of mice inoculated with a lethal infection of Candida albicans. As to conditions: oral administration to mice with lethal Candida albicans infection; survival of treated group after death of untreated group, 48 hours observation. On the procedure: The in vivo evaluation of the compounds can be carried out at a series of dose levels by intraperitoneal or intravenous injection or by oral administration, to mice which are inoculated with a strain of Candida albicans. Activity is based on the survival of a treated group of mice after the death of an untreated group of mice following 48 hours observation. The dose level at which the compound provides 50X protection against the lethal effect of the infection is noted.
The compounds of the Examples were tested in vivo by oral administration to mice inoculated with a lethal infection of Candida albicans according to the procedures described herein. The dose levels providing 50% protection (PD50) were as follows: […]
As to `Cn1ncnc1CC(O)(Cn1cncn1)c1ccc(Cl)cc1Cl` (stereo not drawn) [Example 3 (2), 2-(2,4-Dichlorophenyl)-1-(2-methyl-1,2,4-triazol-3-yl)-3-(1H-1-2,4-triazol-1-yl)propan-2-ol], the “PD50 (dose level providing 50% protection)” value is 20 mg/kg/p.o.
On to `Cn1cnnc1CC(O)(Cn1cncn1)c1ccc(Cl)cc1Cl` (stereo not drawn) [Example 3 (3), 2-(2,4-Dichlorophenyl)-1-(4-methyl-1,2,4-triazol-3-yl)-3-(1H-1,2,4-triazol-l-yl)propan-2-ol], for which the “PD50 (dose level providing 50% protection)” value is 3.5 mg/kg/p.o.

The test is the same for the next values; noted with them: oral administration to mice with lethal Candida albicans infection; survival of treated group after death of untreated group, 48 hours observation; read-out: PD50 (dose level providing 50% protection).
In the case of `Cn1nnnc1CC(O)(Cn1cncn1)c1ccc(Cl)cc1Cl` (stereo not drawn) [Example 1, 2-(2,4-Dichlorophenyl)-1-(1-methyltetrazol-5-yl)-3-(lH-1,2,4-triazol-l-yl)propan-2-ol], the ED50 was 0.1 mg/kg.
As to `OC(Cc1ncn[nH]1)(Cn1cncn1)c1ccc(Cl)cc1Cl` (stereo not drawn) [Example 2, 2-(2,4-Dichlorophenyl)-1-(1,2,4-triazol-3-yl)-3-(1H-1,2,4-triazol-1-yl)propan-2-ol, dioxalate], the ED50 came to 2.2 mg/kg.
Same read-out and setting: to `OC(Cc1ncc[nH]1)(Cn1cncn1)c1ccc(Cl)cc1Cl` (stereo not drawn) [Example 4, 2-(2,4-Dichlorophenyl)-1-(imidazol-2-yl)-3-(1H-1,2,4-triazol-1-yl)propan-2-ol] belongs 1.2 mg/kg; to `Cn1ccnc1CC(O)(Cn1cncn1)c1ccc(Cl)cc1Cl` (stereo not drawn) [Example 5, 2-(2,4-Dichlorophenyl)-1-(1-methylimidazol-2-yl)-3-(1H-1,2,4-triazol-1-yl)propan-2-ol dimesylate], 1 mg/kg.
